Test results from patent US12084472B2 (Ardelyx, Inc., priority 2015, dated 2024).

Biological target: T1, human TGR5 (Homo sapiens, UniProt Q8TDU6)
T1 construct: expressed in transfected cells; host or cells: HEK293
T1 sequence (Q8TDU6 1-330): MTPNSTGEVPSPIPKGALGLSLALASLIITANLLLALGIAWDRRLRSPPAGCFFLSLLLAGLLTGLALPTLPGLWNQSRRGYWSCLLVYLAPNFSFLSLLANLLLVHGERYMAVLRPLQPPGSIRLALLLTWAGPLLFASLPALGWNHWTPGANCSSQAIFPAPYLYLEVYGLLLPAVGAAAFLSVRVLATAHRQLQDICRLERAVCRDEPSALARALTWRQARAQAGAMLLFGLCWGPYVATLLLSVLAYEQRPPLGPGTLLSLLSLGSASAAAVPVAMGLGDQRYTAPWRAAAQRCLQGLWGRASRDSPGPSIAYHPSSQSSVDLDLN
Assay: Cell-based TGR5 assay (cAMP generation, HTRF)
Conditions: HEK293 cells stably transfected with human TGR5; cAMP by HTRF; 30 minutes at 37° C.; read-out: pEC50 Human TGR5 (converted)
How it was run: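 First, compounds in 3-fold serial dilution were placed in HBSS with 10 mM HEPES pH 7.4 and 0.5 mM IBMX. Next, human TGR5-expressing HEK293 cells were added and incubated 30 min at 37° C. Finally, cAMP was detected by HTRF and pEC50 derived by logistic fitting.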

Row | Structure (SMILES) | EC50 [nM]
1 | CS(=O)(=O)NCCCCN(CCCCSc1ccc(Cl)c(COC2(c3cnccc3-c3ccccc3OC3CC3)CC2)c1)C(=O)[C@@H](O)[C@@H](O)[C@H](O)[C@@H](O)CO [Compound I-570, (2S,3S,4R,5S)-N-(4-{[4-chloro-3-({1-[4-(2-cyclopropoxyphenyl)pyridin-3-yl]cyclopropoxy}methyl)phenyl]sulfanyl}butyl)-2,3,4,5,6-pentahydroxy-N-(4-methanesulfonamidobutyl) hexanamide] | < 100
2 | CS(=O)(=O)NCCCN(CCCCSc1ccc(Cl)c(COC2(c3cnccc3-c3ccccc3OC3CC3)CC2)c1)C(=O)[C@@H](O)[C@@H](O)[C@H](O)[C@@H](O)CO [Compound I-577, (2S,3S,4R,5S)-N-(4-{[4-chloro-3-({1-[4-(2-cyclopropoxyphenyl)pyridin-3-yl]cyclopropoxy}methyl)phenyl]sulfanyl}butyl)-2,3,4,5,6-pentahydroxy-N-(3-methanesulfonamidopropyl) hexanamide] | < 100
3 | CCOC(=O)NCCCN(CCCCSc1ccc(Cl)c(COC2(c3cnccc3-c3ccccc3OC3CC3)CC2)c1)C(=O)[C@@H](O)[C@@H](O)[C@H](O)[C@@H](O)CO [Compound I-578, ethyl N-{3-[(2S,3S,4R,5S)-N-(4-{[4-chloro-3-({1-[4-(2-cyclopropoxyphenyl)pyridin-3-yl]cyclopropoxy}methyl)phenyl]sulfanyl}butyl)-2,3,4,5,6-pentahydroxyhexanamido]propyl}carbamate] | < 100
4 | CS(=O)(=O)NCCCCN(CCCSc1ccc(Cl)c(COC2(c3cnccc3-c3ccccc3OC3CC3)CC2)c1)C(=O)[C@@H](O)[C@@H](O)[C@H](O)[C@@H](O)CO [Compound I-580, (2S,3S,4R,5S)-N-(3-{[4-chloro-3-({1-[4-(2-cyclopropoxyphenyl)pyridin-3-yl]cyclopropoxy}methyl)phenyl]sulfanyl}propyl)-2,3,4,5,6-pentahydroxy-N-(4-methanesulfonamidobutyl) hexanamide] | 126 to 1000
5 | CS(=O)(=O)NCCCCN(CCCCSc1ccc(Cl)c(CNC2(c3cnccc3-c3ccccc3OC3CC3)CC2)c1)C(=O)[C@@H](O)[C@@H](O)[C@H](O)[C@@H](O)CO [Compound I-582, (2S,3S,4R,5S)-N-[4-({4-chloro-3-[({1-[4-(2-cyclopropoxyphenyl)pyridin-3-yl]cyclopropyl}amino)methyl]phenyl}sulfanyl)butyl]-2,3,4,5,6-pentahydroxy-N-(4-methanesulfonamidobutyl) hexanamide] | < 100
6 | CS(=O)(=O)CCN(CCCSc1ccc(Cl)c(CNC2(c3cnccc3-c3ccccc3OC3CC3)CC2)c1)C(=O)[C@@H](O)[C@@H](O)[C@H](O)[C@@H](O)CO [Compound I-583, (2S,3S,4R,5S)-N-[3-({4-chloro-3-[({1-[4-(2-cyclopropoxyphenyl)pyridin-3-yl]cyclopropyl}amino)methyl]phenyl}sulfanyl)propyl]-2,3,4,5,6-pentahydroxy-N-(2-methanesulfonylethyl) hexanamide] | 126 to 1000

The remaining lines, values ahead:

Row | EC50 [nM] | Structure (SMILES)
7 | < 100 | CS(=O)(=O)NCCN(CCCCSc1ccc(Cl)c(CNC2(c3cnccc3-c3ccccc3OC3CC3)CC2)c1)C(=O)[C@@H](O)[C@@H](O)[C@H](O)[C@@H](O)CO [Compound I-571, (2S,3S,4R,5S)-N-[4-({4-chloro-3-[({1-[4-(2-cyclopropoxyphenyl)pyridin-3-yl]cyclopropyl}amino)methyl]phenyl}sulfanyl)butyl]-2,3,4,5,6-pentahydroxy-N-(2-methanesulfonamidoethyl) hexanamide]
8 | < 100 | CCOC(=O)NCCN(CCCCSc1ccc(Cl)c(CNC2(c3cnccc3-c3ccccc3OC3CC3)CC2)c1)C(=O)[C@@H](O)[C@@H](O)[C@H](O)[C@@H](O)CO [Compound I-572, ethyl N-{2-[(2S,3S,4R,5S)-N-[4-({4-chloro-3-[({1-[4-(2-cyclopropoxyphenyl)pyridin-3-yl]cyclopropyl}amino)methyl]phenyl}sulfanyl)butyl]-2,3,4,5,6-pentahydroxyhexanamido]ethyl}carbamate]
9 | 126 to 1000 | CC(=O)NCCCN(CCCCSc1ccc(Cl)c(CNC2(c3cnccc3-c3ccccc3OC3CC3)CC2)c1)C(=O)[C@@H](O)[C@@H](O)[C@H](O)[C@@H](O)CO [Compound I-573, (2S,3S,4R,5S)-N-[4-({4-chloro-3-[({1-[4-(2-cyclopropoxyphenyl)pyridin-3-yl]cyclopropyl}amino)methyl]phenyl}sulfanyl)butyl]-N-(3-acetamidopropyl)-2,3,4,5,6-pentahydroxyhexanamide]
10 | < 100 | CCOC(=O)NCCCN(CCCCSc1ccc(Cl)c(CNC2(c3cnccc3-c3ccccc3OC3CC3)CC2)c1)C(=O)[C@@H](O)[C@@H](O)[C@H](O)[C@@H](O)CO [Compound I-574, ethyl N-{3-[(2S,3S,4R,5S)-N-[4-({4-chloro-3-[({1-[4-(2-cyclopropoxyphenyl)pyridin-3-yl]cyclopropyl}amino)methyl]phenyl}sulfanyl)butyl]-2,3,4,5,6-pentahydroxyhexanamido]propyl}carbamate]
11 | < 100 | CS(=O)(=O)NCCN(CCCCSc1ccc(Cl)c(COC2(c3cnccc3-c3ccccc3OC3CC3)CC2)c1)C(=O)[C@@H](O)[C@@H](O)[C@H](O)[C@@H](O)CO [Compound I-575, (2S,3S,4R,5S)-N-(4-{[4-chloro-3-({1-[4-(2-cyclopropoxyphenyl)pyridin-3-yl]cyclopropoxy}methyl)phenyl]sulfanyl}butyl)-2,3,4,5,6-pentahydroxy-N-(2-methanesulfonamidoethyl) hexanamide]
12 | < 100 | CCOC(=O)NCCN(CCCCSc1ccc(Cl)c(COC2(c3cnccc3-c3ccccc3OC3CC3)CC2)c1)C(=O)[C@@H](O)[C@@H](O)[C@H](O)[C@@H](O)CO [Compound I-576, ethyl N-{2-[(2S,3S,4R,5S)-N-(4-{[4-chloro-3-({1-[4-(2-cyclopropoxyphenyl)pyridin-3-yl]cyclopropoxy}methyl)phenyl]sulfanyl}butyl)-2,3,4,5,6-pentahydroxyhexanamido]ethyl}carbamate]
13 | < 100 | CC(=O)NCCCCN(CCCSc1ccc(Cl)c(COC2(c3cnccc3-c3ccccc3OC3CC3)CC2)c1)C(=O)[C@@H](O)[C@@H](O)[C@H](O)[C@@H](O)CO [Compound I-579, (2S,3S,4R,5S)-N-(3-{[4-chloro-3-({1-[4-(2-cyclopropoxyphenyl)pyridin-3-yl]cyclopropoxy}methyl)phenyl]sulfanyl}propyl)-N-(4-acetamidobutyl)-2,3,4,5,6-pentahydroxyhexanamide]
14 | < 100 | O=C([C@@H](O)[C@@H](O)[C@H](O)[C@@H](O)CO)N(CCCCSc1ccc(Cl)c(CNC2(c3cnccc3-c3ccccc3OC3CC3)CC2)c1)C1CCS(=O)(=O)CC1 [Compound I-581, (2S,3S,4R,5S)-N-[4-({4-chloro-3-[({1-[4-(2-cyclopropoxyphenyl)pyridin-3-yl]cyclopropyl}amino)methyl]phenyl}sulfanyl)butyl]-N-(1,1-dioxo-1λ^6-thian-4-yl)-2,3,4,5,6-pentahydroxyhexanamide]
15 | < 100 | CS(=O)(=O)CCN(CCCCSc1ccc(Cl)c(CNC2(c3cnccc3-c3ccccc3OC3CC3)CC2)c1)C(=O)[C@@H](O)[C@@H](O)[C@H](O)[C@@H](O)CO [Compound I-584, (2S,3S,4R,5S)-N-[4-({4-chloro-3-[({-[4-(2-cyclopropoxyphenyl)pyridin-3-yl]cyclopropyl}amino)methyl]phenyl}sulfanyl)butyl]-2,3,4,5,6-pentahydroxy-N-(2-methanesulfonylethyl) hexanamide]
